This is an account of results in patent US11142530B2, “Deep-sea fungus-derived anthraquinone compound and use thereof in preparing anti-allergic drugs” (Third Institute of Oceanography, Ministry of Natural …, priority 2019, dated 2021).

Where two headings read alike, the source gives them in different places.

This assay relates to RBL-2H3 cells. Put plainly: IgE-mediated RBL-2H3 cell degranulation model (β-hexosaminidase release), in vitro anti-allergic activity test. It is filed as cell-based. To be noted: for Degranulation efficiency (%): RBL-2H3 cells, anti-DNP-IgE sensitized, DNP-BSA stimulated. An excerpt: Currently available mast cell lines are not suitable for in vitro subculturing, and thus it is difficult to obtain a large number of homogeneous cells for experimental research. The RBL-2H3 cell line is similar to mast cells in cell structure and degranulation mechanism, and more importantly, it is possible to realize a stable subculturing of the line. Thus, the RBL-2H3 cell line is usually used as an alternative model of mast cells in the studies on mast cell functions and further researches of allergic diseases.
In the present embodiment, an IgE-mediated RBL-2H3 cell model was employed to measure the degranulation efficiency of sensitized cells, followed by a calculation to obtain the inhibitory of the compound against the cell degranulation and to further obtain the anti-allergic activity of the compound.
This embodiment was conducted with the following four groups:
(1) negative control group (non-activated group);
(2) blank control group (DNP-BSA-activated group);
(3) positive control group (loratadine group); and
(4) compound group (the compound obtained in step (5) in Embodiment 1).
This embodiment was conducted as follows:
(1) Sensitizing the cells: The RBL-2H3 cells were collected with trypsinization, and added into 96-well plates, 100 μL in each well, followed by the addition of anti-DNP-IgE to a final concentration of 1 μg/mL to sensitize the cells, and incubated in an incubator overnight (37° C., 5% CO2).
(2) Pre-protection of the cells: In the negative control group, 5, μL of PBS and 95 μL of Tyrode's buffer solution were added to each sample. In the blank control group, 5 μL of DNP-BSA and 95 μL of Tyrode's buffer solution were added to each sample. In the positive control group, 5 μL of loratadine (of various concentrations) and 95 μL of Tyrode's buffer solution were added to each sample. In the compound group, 5 μL of the compound solution (in PBS, with a final concentration of 1.25, 0. 625, 0.3125, 0.15625, 0.078125, or 0.0390625 μg/mL) and 95 μL of Tyrode's buffer solution were added to each sample. After the addition of above reagents, 95 μL of the cells were then added to culture plates, and incubated for 1 hour.
(3) Stimulating the cells: In the negative control group, 5 μL of PBS was added to each sample. In the other three groups, 5 μL of DNP-BSA was added to a final concentration of 1 μg/mL to stimulate the RBL-2H3 cells, and incubated for 1 hour.
(4) Disintegration of the cells: The culture supernatants were collected, and then the Tyrode's buffer solution (containing 0.1% of Triton X-100) was added to the culture plates to disintegrate the cells so as to obtain lysate solutions.
(5) β-hexosaminidase activity measurement: The supernatants and the lysate solutions were added to 96-well plates for fluorescent assays, 25 μL in each well, followed by the addition of 100 μL of 1.2 mM 4-methylumbelliferyl-N-acetyl-β-d-glucosaminide to allow reaction at 37° C. for 30 minutes. Then the fluorescence (excitation wavelength: 360 nm, emission wavelength: 450 nm) of the solution in each well was measured using a microplate reader.
(6) Calculation of degranulation efficiency:
Degranulation efficiency was calculated through the following expression:
wherein, FS represent the fluorescence of supernatant, and FL represents the fluorescence of lysate solution.
(7) Calculation of inhibitory rate on allergy
Inhibitory rate was calculated with the following expression:
wherein DEB represents the degranulation efficiency of blank control group, DEC represents the degranulation efficiency of compound group and DEN represents the degranulation efficiency of negative control group.

Where [1] appears, read: Rattus norvegicus, RBL-2H3, read-out: Inhibitory rate (%).

By IC50 is commonly meant the concentration needed to halve the response being measured. For `CCOC(=O)N1CCC(=C2c3ccc(Cl)cc3CCc3cccnc32)CC1` [loratadine, reference compound], the IC50 (Rattus norvegicus, concentration of the compound when the inhibitory rate is 50%, RBL-2H3 degranulation, read-out: IC50) is 91.6 µM.
In the case of `COc1cc(O)cc2c1C(=O)c1c(cc3c(c1O)C1C=COC1O3)C2=O` (stereo not drawn) [Compound], the “inhibitory effect on mast cell degranulation” value (IgE-mediated RBL-2H3 cell model, result in words) is listed as “strong inhibitory effect”. The “Degranulation efficiency (%)” value (compound 0.0390625 μg/mL) was 52.86%; the “Degranulation efficiency (%)” value (compound 0.078125 μg/mL) is listed as 48.53%; the “Degranulation efficiency (%)” value (compound 0.15625 μg/mL) is 38.46%; the “Degranulation efficiency (%)” value (compound 0.3125 μg/mL) turned out to be 35.61%; the “Degranulation efficiency (%)” value (compound 0.625 μg/mL) worked out at 24.46%; the “Degranulation efficiency (%)” value (compound 1.25 μg/mL) was 14.29%. Also, it took 1.87 µM to reach half-maximal inhibition (Rattus norvegicus, RBL-2H3) (IC50). Further, under setting [1], the inhibition at 0.0390625 µg/mL is -15.2%. In addition, the inhibition at 0.078125 µg/mL under setting [1] was -3.38%. The inhibition at 0.15625 µg/mL under setting [1] came out at 24.2%. Besides, the inhibition at 0.3125 µg/mL under setting [1] was found to be 32.1%. Besides, under setting [1], the inhibition at 0.625 µg/mL turned out to be 62.7%. The inhibition at 1.25 µg/mL under setting [1] was found to be 90.6%.
